The target of this test is T1, human SK3 channel (hKCa0.2.3) (Homo sapiens, UniProt Q9UGI6).
T1 construct: expressed in transfected cells
As to the kind of experiment: Automated patch clamping (QPatch whole-cell). Format: cell-based. The conditions noted are these: HEK-293 cells stably expressing human SK3; free calcium 400 nM; normalized to inhibitory effect of N-methyl bicuculline. Here is the method: Automated whole cell patch-clamp recordings were performed using a QPatch 16 HT system and single-hole Qplates (Biolin Scientific, Sophion, Denmark) on HEK-293 cells stably expressing the human SK3 channel (hKCa0.2.3). Cells were cultured and prepared for experiments using normal cell culturing procedures. A total of 4-5 million cells were used per experiment. The Qpatch automatically generates giga sealing, whole-cell formation, compound application and recording of current. hKCa2.3 currents were recorded in symmetrical K^+ solutions, with an intracellular solution consisting of in mM: KCl 108; KOH/EGTA (ethylene glycol-bis(2-aminoethylether)-N,N,N′,N′-tetraacetic acid) 31.25/10; CaCl2) 8.1; MgCl2 1.2; HEPES (2-[4-(2-hydroxyethyl)piperazin-1-yl]ethanesulfonic acid) 10; KOH 15, pH adjusted to pH=7.2 with HCl. The free calcium concentration was calculated to 400 nM. The extracellular solution consisted of in mM: KCl 150; CaCl2) 0.1; MgCl2 3; HEPES 10; Glucose 10, pH=7.4 with KOH. The cells were held at 0 mV and hKCa0.2.3 currents were elicited by a linear voltage ramp from −80 mV to +80 mV (200 ms in duration) applied every 5th second. The compound application protocol consisted of 12 recording periods lasting from 50-200 s: 1) Baseline recordings in extracellular solution; 2) Application of the positive control N-methyl bicuculline (100 μM), which is characterized by full efficacy, fast on- and off-rate; 3-4) Wash-out; 5-9) Increasing concentrations of test compound to establish an IC50 value; 10-11) Wash-out; 12) positive control with compound NS8593 (N-[(1R)-1,2,3,4-tetrahydro-1-naphthalenyl]-1H-benzimidazol-2-amine) (1 μM). Data were sampled at 10 kHz, 4th order Bessel filter, cut-off frequency 3 kHz. Currents were compensated for run-down. Potency was quantified as the concentration needed to inhibit half of the SK channel activity and reported as an IC50 value. All effects of compounds of the present invention as tested were normalized to the observed inhibitory effect of N-methyl bicuculline.
For orientation: The patch-clamp technique gives a direct electrical read-out from membranes.

On to `COC(=O)C(Cc1cccc(C(F)(F)F)c1)Nc1nc2c(NC(C)=O)cccc2[nH]1` (centres unmarked) [Example 7, methyl 2-[(4-acetamido-1H-1,3-benzodiazol-2-yl)amino]-3-[3-(trifluoromethyl)phenyl]propanoate], for which the IC50 (usually the concentration that inhibits the measured activity by half) is below 10 µM. On to `CON(C)C(=O)CC(Nc1nc2ccccc2[nH]1)c1cccc(C(F)(F)F)c1` (centres unmarked) [Example 11, 3-[(1H-1,3-benzodiazol-2-yl)amino]-N-methoxy-N-methyl-3-[3-(trifluoromethyl)phenyl]propanamide], for which the IC50 is below 10 µM.

Consider `CNC(=O)CC(Nc1nc2ccccc2[nH]1)c1cccc(C(F)(F)F)c1` (centres unmarked) [Example 2, 3-[(1H-1,3-benzodiazol-2-yl)amino]-N-methyl-3-[3(trifluoromethyl)phenyl]propanamide], for which the IC50 is below 10 µM. Regarding `CNC(=O)CC(Nc1nc2cc(F)ccc2[nH]1)c1cccc(C(F)(F)F)c1` (centres unmarked) [Example 17, 3-[(5-fluoro-1H-1,3-benzodiazol-2-yl)amino]-N-methyl-3-[3-(trifluoromethyl)phenyl]propanamide], the IC50 is below 10 µM. In the case of `CN(C)C(=O)C(Nc1nc2ccccc2[nH]1)c1cccc(C(F)(F)F)c1` (centres unmarked) [Example 1, 2-[(1H-1,3-benzodiazol-2-yl)amino]-N,N-dimethyl-2-[3-(trifluoromethyl)phenyl]acetamide] it was below 10 µM. Regarding `CNC(=O)CC(Nc1nc2ccccc2[nH]1)c1cccc(SC)c1` (centres unmarked) [Example 12, 3-[(1H-1,3-benzodiazol-2-yl)amino]-N-methyl-3-[3-(methylsulfanyl)phenyl]propanamide], the half-maximal inhibitory concentration (IC50) was below 10 µM. In the case of `CNC(=O)CC(Nc1nc2c(CO)cccc2[nH]1)c1cccc(SC(F)(F)F)c1` (centres unmarked) [Example 21, 3-{[4-(hydroxymethyl)-1H-1,3-benzodiazol-2-yl]amino}-N-methyl-3-{3-[(trifluoromethyl)sulfanyl]phenyl}propanamide], the IC50 is below 10 µM.

For the molecule `O=C(NC1CC1)C(Nc1nc2ccccc2[nH]1)c1cccc(C(F)(F)F)c1` (centres unmarked) [Example 16, 2-[(1H-1,3-benzodiazol-2-yl)amino]-N-cyclopropyl-2-[3-(trifluoromethyl)phenyl]acetamide], the IC50 was below 10 µM. Under `CNC(=O)C(C)(Nc1nc2ccccc2[nH]1)c1cccc(C(F)(F)F)c1` (centres unmarked) [Example 26, 2-[(1H-1,3-benzodiazol-2-yl)amino]-N-methyl-2-[3-(trifluoromethyl)phenyl]propanamide; trifluoroacetic acid] stands below 10 µM; under `CNC(=O)CC(Nc1nc2c(Cl)cccc2[nH]1)c1cccc(C(F)(F)F)c1` (centres unmarked) [Example 20, 3-[(4-chloro-1H-1,3-benzodiazol-2-yl)amino]-N-methyl-3-[3-(trifluoromethyl)phenyl]propanamide], below 10 µM.

Take `CNC(=O)CC(Nc1nc2c(C)c(F)ccc2[nH]1)c1cccc(C(F)(F)F)c1` (centres unmarked) [Example 4, 3-[(5-fluoro-4-methyl-1H-1,3-benzodiazol-2-yl)amino]-N-methyl-3-[3-(trifluoromethyl)phenyl]propanamide]: the IC50 is below 10 µM. `C=CCNC(=O)CC(Nc1nc2ccccc2[nH]1)c1cccc(C(F)(F)F)c1` (centres unmarked) [Example 3, 3-[(1H-1,3-benzodiazol-2-yl)amino]-N-(prop-2-en-1-yl)-3-[3-(trifluoromethyl)phenyl]propanamide]: the IC50 is below 10 µM. In the case of `CNC(=O)CC(Nc1nc2cc(OC(F)(F)F)ccc2[nH]1)c1cccc(C(F)(F)F)c1` (centres unmarked) [Example 18, N-methyl-3-{[5-(trifluoromethoxy)-1H-1,3-benzodiazol-2-yl]amino}-3-[3-(trifluoromethyl)phenyl]propanamide; trifluoroacetic acid], the IC50 was below 10 µM.

`CNC(=O)CC(Nc1nc2c(CCO)cccc2[nH]1)c1cccc(C(F)(F)F)c1` (centres unmarked) [Example 6, 3-{[4-(2-hydroxyethyl)-1H-1,3-benzodiazol-2-yl]amino}-N-methyl-3-[3-(trifluoromethyl)phenyl]propanamide]: the IC50 was below 100 µM. For the molecule `CNC(=O)CC(Nc1nc2ccccc2[nH]1)c1cccc(C(=O)OC)c1` (centres unmarked) [Example 24, methyl 3-{1-[(1H-1,3-benzodiazol-2-yl)amino]-2-(methylcarbamoyl)ethyl}benzoate], the IC50 was below 10 µM. Under `CNC(=O)CC(Nc1nc2ccccc2[nH]1)c1ccc(Cl)c(C)c1` (centres unmarked) [Example 10, 3-[(1H-1,3-benzodiazol-2-yl)amino]-3-(4-chloro-3-methylphenyl)-N-methylpropanamide] stands below 10 µM. Regarding `CC(C)CNC(=O)C(Nc1nc2ccccc2[nH]1)c1cccc(C(F)(F)F)c1` (centres unmarked) [Example 15, 2-[(1H-1,3-benzodiazol-2-yl)amino]-N-(2-methylpropyl)-2-[3-(trifluoromethyl)phenyl]acetamide], the IC50 is below 10 µM. `CNC(=O)CC(Nc1nc2ccccc2[nH]1)c1cccc(OC(F)(F)F)c1` (centres unmarked) [Example 13, 3-[(1H-1,3-benzodiazol-2-yl)amino]-N-methyl-3-[3-(trifluoromethoxy)phenyl]propanamide]: the IC50 is below 10 µM. With `CNC(=O)CCC(Nc1nc2ccccc2[nH]1)c1cccc(C(F)(F)F)c1` (single isomer, unassigned; (-)) [Example 25a, (−)-4-[(1H-1,3-benzodiazol-2-yl)amino]-N-methyl-4-[3-(trifluoromethyl)phenyl]butanamide], the IC50 was below 10 µM.

`CNC(=O)CC(Nc1nc2ccccc2[nH]1)c1ccc(Cl)c(Cl)c1` (centres unmarked) [Example 22, 3-[(1H-1,3-benzodiazol-2-yl)amino]-3-(3,4-dichlorophenyl)-N-methylpropanamide]: the IC50 was below 10 µM. On to `CNC(=O)C(Cc1cccc(C(F)(F)F)c1)Nc1nc2ccccc2[nH]1` (centres unmarked) [Example 8, 2-[(1H-1,3-benzodiazol-2-yl)amino]-N-methyl-3-[3-(trifluoromethyl)phenyl]propanamide], for which the IC50 was below 100 µM. As to `CNC(=O)CC(Nc1nc2c(COC)cccc2[nH]1)c1cccc(C(F)(F)F)c1` (centres unmarked) [Example 19, 3-{[4-(methoxymethyl)-1H-1,3-benzodiazol-2-yl]amino}-N-methyl-3-[3-(trifluoromethyl)phenyl]propanamide], the IC50 was below 10 µM. Under `Cc1c(F)ccc2[nH]c(NC(CC(N)=O)c3cccc(C(F)(F)F)c3)nc12` (centres unmarked) [Example 14, 3-[(5-fluoro-4-methyl-1H-1,3-benzodiazol-2-yl)amino]-3-[3-(trifluoromethyl)phenyl]propanamide] stands below 10 µM; under `CNC(=O)CC(Nc1nc2ccccc2[nH]1)c1cccc(C(F)(F)F)c1` (single isomer, unassigned; (-)) [Example 2a, (−)3-[(1H-1,3-benzodiazol-2-yl)amino]-N-methyl-3-[3(trifluoromethyl)phenyl]propanamide], below 10 µM. With `CNC(=O)CCC(Nc1nc2ccccc2[nH]1)c1cccc(C(F)(F)F)c1` (centres unmarked) [Example 25, 4-[(1H-1,3-benzodiazol-2-yl)amino]-N-methyl-4-[3-(trifluoromethyl)phenyl]butanamide], the IC50 was below 10 µM. Take `CNC(=O)CC(Nc1nc2c(C)cccc2[nH]1)c1cccc(C(F)(F)F)c1` (centres unmarked) [Example 5, N-methyl-3-[(4-methyl-1H-1,3-benzodiazol-2-yl)amino]-3-[3-(trifluoromethyl)phenyl]propanamide]: the IC50 was below 10 µM. In the case of `CNC(=O)CC(Nc1nc2ccccc2[nH]1)c1cc(C)c(F)c(C)c1` (centres unmarked) [Example 9, 3-[(1H-1,3-benzodiazol-2-yl)amino]-3-(4-fluoro-3,5-dimethylphenyl)-N-methylpropanamide] it was below 10 µM. In the case of `CN(C)C(=O)C(Nc1nc2ccccc2[nH]1)c1cccc(C(F)(F)F)c1` (single isomer, unassigned; (-)) [Example 1a, (−)2-[(1H-1,3-benzodiazol-2-yl)amino]-N,N-dimethyl-2-[3-(trifluoromethyl)phenyl]acetamide] it was below 10 µM; in that of `CNC(=O)C(C)(Nc1nc2ccccc2[nH]1)c1cccc(C(F)(F)F)c1` (single isomer, unassigned; (+)) [Example 26a, (+)-2-[(1H-1,3-benzodiazol-2-yl)amino]-N-methyl-2-[3-(trifluoromethyl)phenyl]propanamide], below 10 µM.

The values above are taken from US11098018B2, “Potassium channel inhibitors” (ACESION PHARMA ApS, priority 2017, dated 2021).
